Test results as given in patent US10314814B2, “Composition comprising 7-hydroxymatairesinol” (LINNEA S.A., priority 2014, dated 2019).

Legend:
Type in all cases: in vivo, mice (C57BL/6J)
[1] = Test 1 - fat mass and lean mass quantification (EchoMRI), body weight; settings: summary statement; data in FIGS. 1 and 2
Experimental: (§1) A group of 140 mice (C57BL/6J) was divided in four sub-groups, group 1 having twenty mice and groups 2 to 4 having forty mice each. Group 1 was fed for 60 days with a low fat (LF) diet (providing 10% calories from fat). Group 2 was fed for 60 days with a high fat (HF) diet (providing 50% calories from fat). Groups 3 and 4 were fed for 60 days with a high fat diet and with 3 mg/kg/day of HMRlignan™ purified HMR (HF+HMR) or 10 mg/kg/day of a total extract of Picea abies (HF+TEP), respectively.
(§2) Mice were kept in animal cabinets maintained at a temperature of 23° C., with natural light/dark cycles. Before treatments, mice were put 5 days on an low fat diet. Mice were fed by gavage daily for 60 days (groups 3 and 4), whilst control groups (1 and 2) received by gavage the carrier only (corn oil). […]
EchoMRI provides the most precise measurements of whole body composition parameters (total body fat and lean mass), in alive mice without the need of anesthesia or sedation and in less than 1 minute. Alterations in mouse whole body composition were assessed as a result of exposure to modified diets. […]
The EchoMRI-100™ QNMR system was housed in a dedicated area to minimize the entry of disease or contaminants. […] The output information was expressed as lean tissue mass and fat mass in grams. […]

[2] = Test 6 - lipid profiles in blood
Experimental: as §1
(§3) Mice were kept in animal cabinets maintained at a temperature of 23° C., with natural light/dark cycles. Before treatments, mice were put 5 days on an low fat diet. Mice were fed by gavage daily for 60 days (groups 3 and 4), whilst control groups (1 and 2) received by gavage the carrier only (corn oil). The animals were sacrificed by cervical dislocation and the tissues dissected and immediately frozen on dry ice or fixed for histological evaluation.
The concentration in blood of cholesterol (Total), cholesterol HDL (HDL), cholesterol LDL (LDL) and triglycerides (TG) were determined according to standard methods, by using an ILab ARIES analyzer (Instrumentation Laboratory Company, Lexington, Mass., USA) and dedicated reagents kits IL Test (Instrumentation Laboratory Company, Lexington, Mass., USA)

[3] = system: epidydimal adipose tissue; experiment: Test 2 - histological examination, average adipocyte area
Experimental: as §1, §3
Fresh epidydimal adipose tissue was fixed in formaldehyde, embedded in paraffin and sliced into 3-μm sections. Sections were stained with hematoxylin, counterstained with eosin, then coverslipped with DPX (BDH, Poole, UK). […]
Average adipocyte area was calculated at ×20 magnification with a dedicated software (Image Pro Plus; Imaging and Computer, Milan). In all samples, at least four different fields of three different tissue sections have been evaluated.

[4] = Test 5 - homeostasis model assessment of insulin resistance (HOMA-IR); settings: HOMA Calculator, glucose and insulin after 6 hours of food withdrawal, high fat diet, 60 days
Experimental: as §1, §3
The homeostatic model assessment of insulin resistance (HOMA-IR) was calculated using glucose and insulin concentrations obtained after 6 hours of food withdrawal, using the HOMA Calculator (Diabetes Trials Unit), the Oxford Centre for Diabetes, Endocrinology and Metabolism: homa.calculator@dtu.ox.ac.uk. Plasma insulin levels were measured with an insulin ELISA kit (Millipore, Mouse Insulin 96 well plate assay; CAT. Nº EZRMI-13K).

[5] = system: ATGL, PLA2g7 and LPL mRNA; experiment: Test 8 - regulation of genes of the lipid metabolism (epidydimal adipose tissue); settings: summary statement; data in FIGS. 7a-7c
Experimental: as §1, §3
The expression of ATGL, PLA2g7 and LPL mRNA was measured in the epidydimal adipose tissue of the four groups of mice according to standard procedures as follows.
(§4) Total RNA was extracted from 10 to 30 mg of tissue using the RNeasy Lipid Tissue Kit (Qiagen, Maryland, USA) and following the manufacture's instruction. […] Quantitative PCR was performed using Assay on Demand kits based on TaqMan chemistry (Applied Biosystems). […]

[6] = system: PPARg and TFEB mRNA; experiment: Test 9 - regulation of genes of the lipid metabolism (liver); settings: summary statement; data in FIGS. 8a, 8b
Experimental: as §1, §3
The expression of PPARg and TFEB mRNA was measured in the liver of the four groups of mice according to standard procedures as follows.
as §4

[7] = Test 4 - glucose tolerance test; settings: summary statement; data in FIG. 4
Experimental: as §1, §3
For glucose tolerance tests animals were fasted overnight for 12 hours and blood sample were obtained from the tail vein. […] The glucose concentration was evaluated with standard method (Benjamin B. Whiddon and Richard D. Palmiter. Ablation of Neurons Expressing Melanin-Concentrating Hormone (MCH) in Adult Mice Improves Glucose Tolerance Independent of MCH Signaling. J Neurosci. 2013 Jan. 30; 33(5): 2009-2016).

[8] = system: liver tissue; experiment: Test 3 - liver steatosis (histology); settings: high fat diet, 60 days; HMR 3 mg/kg/day, TEP 10 mg/kg/day; compared with HF group 2 (micro- and macro vesicular steatosis)
Experimental: as §1, §3
Fresh liver tissue was fixed in formaldehyde, embedded in paraffin and sliced into 3-μm sections. Sections were stained with hematoxylin, counterstained with eosin, then coverslipped with DPX (BDH, Poole, UK). Images acquisition was obtained by a digital camera (Nikon Digital Camera DMX 1200). A sample image of the four groups was illustrated in FIG. 3.

[9] = system: IL-6 and TNF-alfa mRNA; experiment: Test 7 - inflammatory cytokine mRNA expression; settings: summary statement; data in FIGS. 6a-6c
Experimental: as §1, §2
The expression of inflammatory cytokine mRNA was measured in the epidydimal adipose tissue (IL-6 and TNF-alfa) and liver (IL-6) in the four groups of mice according to standard procedures as follows.
as §4

[10] = system: hepcidin, ferritin and ferroportin; experiment: Test 11 - iron metabolism; settings: summary statement; data in FIG. 11
Experimental: as §1, §3
The levels of hepcidin, ferritin and ferroportin were measured in the four groups of mice according to standard procedures as described, for example, in An-Sheng Zhang et al. “Suppression of hepatic hepcidin expression in response to acute iron deprivation is associated with an increase of matriptase-2 protein”, Blood. Feb. 3, 2011; 117(5):1687-1699).

[11] = system: GSTs mRNA; 8OHdG and dGU; experiment: Test 10 - oxidative stress (GSTs mRNA, 8OHdG/dGU); settings: summary statement; data in FIGS. 9, 10
Experimental: as §1
Mice were kept in animal cabinets maintained at a temperature of 23° C., with natural light/dark cycles. Before treatments, mice were put 5 days on an low fat diet. […]
The expression of GSTs mRNA was measured in the four groups of mice according to standard procedures as follows.
as §4
The expression of 8OHdG and dGU […] was measured in the four groups of mice according to standard procedures as follows.
Genomic DNA was isolated with commercial kit PUREGENE (Gentra Systems MN, USA), following the manufacturer's instructions, and then quantified using Nanodrop spectrophotometer (Thermo Scientific, DE, USA). […]

COc1cc(CC2C(=O)OCC2C(O)c2ccc(O)c(OC)c2)ccc1O (stereo not drawn) [HMR, 7-hydroxymatairesinol]
obesity [1]: able to reduce | cholesterol LDL (LDL) concentration in blood ([2]; high fat diet, 60 days, HF control 56, LF 18): 51 | cholesterol HDL (HDL) concentration in blood ([2]; high fat diet, 60 days, HF control 133, LF 79): 129 | triglycerides (TG) concentration in blood ([2]; high fat diet, 60 days, HF control 153, LF 88): 140 | cholesterol (Total) concentration in blood ([2]; high fat diet, 60 days, HMR 3 mg/kg/day, TEP 10 mg/kg/day, HF control 220, LF 114): 209 | dyslipidemia ([2]; summary statement): able to reduce | Average area (adipocyte) ([3]; epidydimal adipose tissue, high fat diet, 60 days, daily gavage, HMR 3 mg/kg/day, TEP 10 mg/kg/day, HF control 20832, LF 9275, data only indicative, group 3 vs group 2 statistically different): 18478 μm^2 | number and area of adipocytes ([3]; summary statement): able to reduce | IR: Insulin resistance ([4]; HF control 6.97, LF 0.69): 2.04 | % S: Insulin sensitivity ([4]; HF control 15.0, LF 121.0): 31.9 | % B: Steady state beta cell function ([4]; HF control 101.0, LF 64.4): 55.0 | regulation of genes of the lipid metabolism in the epidydimal adipose tissue (ATGL mRNA, PLA2g7 gene, LPL gene) [5]: able to contribute to the regulation | regulation of genes of the lipid metabolism in the liver (PPARg gene, TFEB gene) [6]: able to contribute to the regulation | glycaemia [7]: able to reduce | Liver histology (steatosis) [8]: some vacuoles, much less than group 2 | concentration of pro-inflammatory cytokines in the epidydimal adipose tissue and liver [9]: reduce | iron metabolism [10]: regulate | cellular oxidative stress [11]: able to reduce
